Test results reported in article PMC6277375, “Pharmacological profile of the neuropeptide S receptor: Dynamic mass redistribution studies” (Pharmacology Research & Perspectives, 2018).
Marks after values point to notes of the source that are not given here. Square brackets hold non-standard residues; d marks the D form. Ends that are not written are not given here. Peptide text beside a SMILES is read from it. Bip = N[C@@H](Cc1ccc(-c2ccccc2)cc1)C(=O)O; Aib = CC(C)(N)C(=O)O

Experiments:
murine NPSR = biological target: T1, murine NPSR (Mus musculus, UniProt Q8BZP8); assay: Dynamic mass redistribution (DMR) assay in HEK293mNPSR cells; assay type: cell-based; details: for intrinsic activity α ± SEM / Agonist potency pEC50 (CL95%) / EC50: DMR; for DMR response, HEK293mNPSR pm ± SEM: peak at 60 minute, mean ± SEM, duplicate; for Agonist potency pEC50 (CL95%) / EC50: agonism protocol, 60 minute recording, at least three experiments in duplicate; for fold less potent than NPS (DMR): agonist potency relative to NPS; for EC50: read-out: Agonist potency pEC50 (CL95%) (converted); for Effect of inhibitor on NPS-evoked DMR response: FR900359 1 μmol L^−1 (60 minute before NPS), PTX 100 ng mL^−1 (24 hours before), rolipram 10 μmol L^−1 (90 minute before)
T1 construct: expressed in transfected cells
T1 sequence (Q8BZP8 1-371): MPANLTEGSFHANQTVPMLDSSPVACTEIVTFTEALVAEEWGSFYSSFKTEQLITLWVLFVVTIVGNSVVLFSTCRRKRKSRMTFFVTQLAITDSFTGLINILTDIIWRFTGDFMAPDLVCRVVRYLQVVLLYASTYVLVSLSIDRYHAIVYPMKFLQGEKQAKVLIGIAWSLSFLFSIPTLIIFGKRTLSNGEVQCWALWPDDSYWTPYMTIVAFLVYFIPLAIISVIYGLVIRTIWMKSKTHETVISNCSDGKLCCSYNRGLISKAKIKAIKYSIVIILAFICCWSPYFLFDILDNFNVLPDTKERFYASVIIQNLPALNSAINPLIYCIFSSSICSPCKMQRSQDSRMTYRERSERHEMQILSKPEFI
Description: (§1) HEK293 cells stably expressing the murine NPSR receptor (HEK293mNPSR) were described previously.3 Wild‐type HEK293 cells were used as a control. Cells were maintained in Dulbecco's Medium (DMEM) supplemented with 10% fetal bovine serum, 100 U/mL penicillin, 100 μg/mL streptomycin and, 2 mmol L^−1 L‐glutamine. The medium was complemented with 100 mg/L hygromycin for HEK293mNPSR. Cells were cultured at 37°C in 5% CO2 humidified air.
Confluent cells were subcultured using trypsin/EDTA and used for experiments. […] On the day of the experiment, cells were manually washed twice and maintained with assay buffer for 90 minutes before DMR experiments. DMR was monitored in real time with a temporal resolution of 22 seconds throughout the assay. Experiments were performed at 37°C, using an EnSight Multimode Plate Reader (PerkinElmer), that uses the Corning® Epic® Technology to measure the DMR signal. Agonism protocol: a 5‐minute baseline was first established, followed by adding compounds manually in a volume of 10 μL and recording compounds‐triggered DMR signal for 60 minute. Antagonism protocol: antagonists were added manually 25 minute before reading the 5‐minute baseline. After baseline establishment, NPS was injected and DMR signal was recorded for 60 minute. Antagonist properties of ligands were measured by assessing the concentration‐response curve to NPS in the absence and in presence of a fixed concentration of compound. FR900359 was added 60 minute before NPS, rolipram was incubated for 90 minute before NPS, while PTX was added 24 hours before NPS. Maximum picometer (pm) modifications (peak measured at 60 minute time point) were used to determine agonist response after baseline normalization.
All data were analyzed using Graph Pad Prism 6.0 (La Jolla, CA, USA). Concentration‐response curves were fitted using the four parameters log logistic equation. Data are expressed as mean ± SEM of n experiments performed in duplicate and were analyzed using one‐ or two‐way analysis of variance (ANOVA) followed by Dunnett's or Tukey's test for multiple comparisons wherever appropriate. […] Antagonists potencies were assayed at single concentrations against the concentration‐response curve to NPS and their pA2 was derived using the following equation: pA2 = log(CR − 1) − log[A], where CR is the ratio between agonist potency (EC50) in the presence and in absence of antagonist and [A] is the molar concentration of antagonist.

wild-type HEK293 cells = assay: DMR assay in wild-type HEK293 cells (control); assay type: cell-based, Human; details: mean ± SEM, duplicate
Description: as §1
Confluent cells were subcultured using trypsin/EDTA and used for experiments. Cells were seeded at a density of 20 000 cells/well in 30 μL into fibronectin‐coated Enspire™‐LC 384‐wells plates and cultured for 20 hours to form a confluent monolayer. On the day of the experiment, cells were manually washed twice and maintained with assay buffer for 90 minutes before DMR experiments. DMR was monitored in real time with a temporal resolution of 22 seconds throughout the assay. Experiments were performed at 37°C, using an EnSight Multimode Plate Reader (PerkinElmer), that uses the Corning® Epic® Technology to measure the DMR signal. Agonism protocol: a 5‐minute baseline was first established, followed by adding compounds manually in a volume of 10 μL and recording compounds‐triggered DMR signal for 60 minute. Antagonism protocol: antagonists were added manually 25 minute before reading the 5‐minute baseline. After baseline establishment, NPS was injected and DMR signal was recorded for 60 minute. Antagonist properties of ligands were measured by assessing the concentration‐response curve to NPS in the absence and in presence of a fixed concentration of compound. FR900359 was added 60 minute before NPS, rolipram was incubated for 90 minute before NPS, while PTX was added 24 hours before NPS. Maximum picometer (pm) modifications (peak measured at 60 minute time point) were used to determine agonist response after baseline normalization.
All data were analyzed using Graph Pad Prism 6.0 (La Jolla, CA, USA). Concentration‐response curves were fitted using the four parameters log logistic equation. Data are expressed as mean ± SEM of n experiments performed in duplicate and were analyzed using one‐ or two‐way analysis of variance (ANOVA) followed by Dunnett's or Tukey's test for multiple comparisons wherever appropriate. Agonist potency was expressed as pEC50, which is the negative logarithm to base 10 of the agonist molar concentration that produces 50% of the maximal possible effect of that agonist. Antagonists potencies were assayed at single concentrations against the concentration‐response curve to NPS and their pA2 was derived using the following equation: pA2 = log(CR − 1) − log[A], where CR is the ratio between agonist potency (EC50) in the presence and in absence of antagonist and [A] is the molar concentration of antagonist.

[1] = ligand 10 μmol L^−1, 37°C, peak at 60 minute after baseline normalization
[2] = ligand 1 μmol L^−1, 37°C, peak at 60 minute

Row | Compound | intrinsic activity α ± SEM (murine NPSR; relative to NPS = 1.00, SEM) | DMR response, HEK293mNPSR pm ± SEM (murine NPSR; ligand 10 μmol L^−1, 37°C) | fold less potent than NPS (DMR) (murine NPSR) | DMR response, HEK293 pm ± SEM (wild-type HEK293 cells; [1]) | further results
1 | [D‐Val^5]NPS |  |  |  |  | Agonist potency pEC50 (CL95%) (murine NPSR): Inactive; intrinsic activity α ± SEM (murine NPSR; relative to NPS = 1.00): Inactive
2 | SFRNGVGTGM [NPS(1‐10)] | 1.09 ± 0.14 | 683 ± 90 ^a pm | 100 fold | 27 ± 6 pm | fold less potent than NPS (DMR) (murine NPSR; listed as NPS (1‐10)): approximately 100 fold
3 | NPS(3‐20): NPS fragment (RNGVGTGMKKTSFQRAKS; Neuropeptide S; UniProt P0C0P6 72-89, looked up, fragment) |  | 675 ± 54 ^a pm |  | 166 ± 14 ^a pm | Agonist potency pEC50 (CL95%) (murine NPSR): crc incomplete; intrinsic activity α ± SEM (murine NPSR; relative to NPS = 1.00): crc incomplete; DMR response, HEK293mNPSR pm ± SEM (murine NPSR; ligand 1 μmol L^−1, 37°C): 315 ± 17 ^a pm; DMR response, HEK293 pm ± SEM (wild-type HEK293 cells; [2]): 41 ± 14 pm
4 | FRNGVGTGMKKTSFQRAKS [NPS(2‐20)] | 1.14 ± 0.05 | 782 ± 46 ^a pm | approximately 30 fold | 70 ± 10 pm | 
5 | SFRNGVGTGMKKTSFQRAKS [NPS, Neuropeptide S] |  |  |  |  | EC50 (murine NPSR): 1.66 nM
6 | Pertussis Toxin [PTX] |  |  |  |  | Effect of inhibitor on NPS-evoked DMR response (murine NPSR): did not modify NPS‐evoked DMR response
7 | CSCC[C@H](NC(=O)CNC(=O)[C@@H](NC(=O)CNC(=O)[C@@H](NC(=O)C(C)(C)NC(=O)[C@H](CC(N)=O)NC(=O)[C@H](CCCNC(=N)N)NC(=O)[C@H](Cc1ccccc1)NC(=O)[C@@H](N)CO)C(C)C)[C@@H](C)O)C(=O)N[C@@H](CCCCN)C(=O)N[C@@H](CCCCN)C(=O)N[C@H](C(=O)N[C@@H](CO)C(=O)N[C@@H](Cc1ccccc1)C(=O)N[C@@H](CCC(N)=O)C(=O)N[C@@H](CCCNC(=N)N)C(=O)N[C@@H](C)C(=O)N[C@@H](CCCCN)C(=O)N[C@@H](CO)C(=O)O)[C@@H](C)O [[Aib^5]NPS] (H-SFRN[Aib]VGTGMKKTSFQRAKS-OH) |  |  |  |  | EC50 (murine NPSR): 145 nM
8 | CSCC[C@H](NC(=O)CNC(=O)[C@@H](NC(=O)CNC(=O)[C@@H](NC(=O)CNC(=O)[C@H](CC(N)=O)NC(=O)[C@H](CCCNC(=N)N)NC(=O)[C@H](Cc1ccc(-c2ccccc2)cc1)NC(=O)[C@@H](N)CO)C(C)C)[C@@H](C)O)C(=O)N[C@@H](CCCCN)C(=O)N[C@@H](CCCCN)C(=O)N[C@H](C(=O)N[C@@H](CO)C(=O)N[C@@H](Cc1ccccc1)C(=O)N[C@@H](CCC(N)=O)C(=O)N[C@@H](CCCNC(=N)N)C(=O)N[C@@H](C)C(=O)N[C@@H](CCCCN)C(=O)N[C@@H](CO)C(=O)O)[C@@H](C)O [[Bip^2]NPS] (H-S[Bip]RNGVGTGMKKTSFQRAKS-OH; N-terminus and C-terminus assumed) | 1.01 ± 0.04 | 761 ± 60 ^a pm | approximately 30 fold | 191 ± 30 ^a pm | DMR response, HEK293mNPSR pm ± SEM (murine NPSR; ligand 1 μmol L^−1, 37°C): 577 ± 2 ^a pm; DMR response, HEK293 pm ± SEM (wild-type HEK293 cells; [2]): 47 ± 16 pm
9 | C[N+](C)(C)CCOC(N)=O [Carbachol, reference compound] |  |  |  |  | DMR response, HEK293mNPSR pm ± SEM (murine NPSR; ligand 100 μmol L^−1, 37°C): 393 ± 9 ^a pm; DMR response, HEK293 pm ± SEM (wild-type HEK293 cells; ligand 100 μmol L^−1, 37°C, peak at 60 minute): 480 ± 51 ^a pm
10 | COc1ccc(C2CNC(=O)C2)cc1OC1CCCC1 (stereo not shown) [rolipram, reference compound] |  |  |  |  | Effect of inhibitor on NPS-evoked DMR response (murine NPSR): did not change NPS effects

Second part, led by results:

Row | intrinsic activity α ± SEM (murine NPSR; relative to NPS = 1.00, SEM) | DMR response, HEK293mNPSR pm ± SEM (murine NPSR; ligand 10 μmol L^−1, 37°C) | fold less potent than NPS (DMR) (murine NPSR) | Compound | DMR response, HEK293 pm ± SEM (wild-type HEK293 cells; [1]) | further results
11 | 1.03 ± 0.03 | 692 ± 15 ^a pm |  | SFRNGVATGMKKTSFQRAKS [[Ala^7]NPS] | 115 ± 33 pm | 
12 |  | 356 ± 48 ^a pm |  | NPS(1‐6): NPS fragment (SFRNGV; Neuropeptide S; UniProt P0C0P6 70-75, looked up, fragment) | 25 ± 10 pm | Agonist potency pEC50 (CL95%) (murine NPSR): crc incomplete; intrinsic activity α ± SEM (murine NPSR; relative to NPS = 1.00): crc incomplete
13 | 1.09 ± 0.04 | 686 ± 50 ^a pm | approximately 30 fold | CSCC[C@H](NC(=O)CNC(=O)[C@@H](NC(=O)CNC(=O)[C@@H](NC(=O)[C@@H](C)NC(=O)[C@H](CC(N)=O)NC(=O)[C@H](CCCNC(=N)N)NC(=O)[C@H](Cc1ccccc1)NC(=O)[C@@H](N)CO)C(C)C)[C@@H](C)O)C(=O)N[C@@H](CCCCN)C(=O)N[C@@H](CCCCN)C(=O)N[C@H](C(=O)N[C@@H](CO)C(=O)N[C@@H](Cc1ccccc1)C(=O)N[C@@H](CCC(N)=O)C(=O)N[C@@H](CCCNC(=N)N)C(=O)N[C@@H](C)C(=O)N[C@@H](CCCCN)C(=O)N[C@@H](CO)C(=O)O)[C@@H](C)O [[D‐Ala^5]NPS] (H-SFRN[dA]VGTGMKKTSFQRAKS-OH; N-terminus and C-terminus assumed) | 55 ± 14 pm | 
